From US4075192A, “Nonapeptides and methods for their production” (Parke, Davis & Company, priority 1977, dated 1978) come the findings set out here.

The assay concerns LRF (luteinizing hormone releasing factor) induced luteinizing hormone (LH) release. The experiment in a line: In vitro LRF antagonist test in rat anterior pituitary cell cultures. It counts as cell-based. The source says: Nonapeptides of this invention were screened for LRF antagonist activity in vitro using rat anterior pituitary cell cultures as described by Vale et al. [Endocrinology, 91, 562 (1972)]. The inhibition of LRF (luteinizing hormone releasing factor) induced luteinizing hormone (LH) release into the culture medium is the endpoint in this in vitro bioassay.

Non-standard residues stand in square brackets, D forms with d. Residues, ends and D or L forms follow the SMILES beside them. No end group written: not given here. *: point of attachment. pGlu = O=C1CC[C@@H](C(=O)O)N1; Orn = NCCC[C@H](N)C(=O)O; Bn = c1ccc(C*)cc1

As to `CCNC(=O)[C@@H]1CCCN1C(=O)[C@H](CCCN)NC(=O)[C@H](CC(C)C)NC(=O)[C@@H](C)NC(=O)[C@H](COCc1ccccc1)NC(=O)[C@H](Cc1ccc(OCc2ccccc2)cc1)NC(=O)[C@H](Cc1c[nH]c2ccccc12)NC(=O)[C@@H](Cc1ccccc1)NC(=O)[C@@H]1CCC(=O)N1` [L-pyroglutamyl-D-phenylalanyl-L-tryptophyl-O-benzyl-L-tyrosyl-O-benzyl- L-seryl-D-alanyl-L-leucyl-L-ornithyl-L-proline N-ethylamide] ([pGlu][dF]WY(Bn)S(Bn)[dA]L[Orn]P-NHEt), the “LH Value” (compound Molar Conc. 1×10^-6, LH released into culture medium) stood at 19.15 ng/mL. Further, the “% LH Release Inhibition” value (compound Molar Conc. 1×10^-6, inhibition of LRF induced LH release) worked out at 61%.
Consider “LRF Control: luteinizing hormone releasing factor, also referred to as luteinizing hormone releasing hormone, LH-RH; stimulates secretion of luteinizing hormone (QHWSYGLRPG; ends and bridges not checked; UniProt P01148 24-33, looked up) [reference compound]”, for which the “LH Value” (LRF alone, Molar Conc. 2.5×10^-10) amounted to 39.98 ng/mL.
